#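 Where inhibition never reached the appropriate level, the endpoint shown equals the highest concentration tested. Otherwise, values were interpolated linearly from a five-concentration, 48-hour dose response in 96-well plates. The concentration for full growth arrest is given as TGI.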
# How the values were obtained:
# Experiment in all cases: NCI tumour cell line growth inhibition, 48 h
# [1] = tested on: HT29 colon
# [2] = tested on: SK-MEL-28 melanoma
# [3] = tested on: 786-0 renal
# [4] = tested on: EKVX NSCLC
# [5] = tested on: SK-OV-3 ovarian
# [6] = tested on: NCI-H23 lung
# [7] = tested on: SR leukemia
# [8] = tested on: SK-MEL-5 melanoma
# [9] = tested on: HOP-18 NSCLC
# [10] = tested on: SNB-78 CNS
# [11] = tested on: OVCAR-5 ovarian
# [12] = tested on: A498 renal
# [13] = tested on: M19-MEL melanoma
# [14] = tested on: IGROV1 ovarian
# [15] = tested on: ACHN renal
# [16] = tested on: OVCAR-4 ovarian
# [17] = tested on: COLO 205 colon
# [18] = tested on: M14 melanoma
# [19] = tested on: NCI-H460 lung
# [20] = tested on: SN12C renal
# [21] = tested on: UO-31 renal
# [22] = tested on: NCI-H226 lung
# [23] = tested on: KM12 colon
# [24] = tested on: UACC-62 melanoma
# [25] = tested on: MALME-3M melanoma
# [26] = tested on: DMS 114 small cell lung
# [27] = tested on: HOP-62 NSCLC
# [28] = tested on: MOLT-4 leukemia
# [29] = tested on: HCT-116 colon
# [30] = tested on: DMS 273 small cell lung
# [31] = tested on: HOP-92 NSCLC
# [32] = tested on: TK-10 renal
# [33] = tested on: HCC-2998 colon
# [34] = tested on: SNB-75 CNS
# [35] = tested on: RXF-631 renal
# [36] = tested on: SF-539 CNS
# [37] = tested on: XF 498 CNS
# [38] = tested on: A549 NSCLC
# [39] = tested on: SF-268 CNS
# [40] = tested on: UACC-257 melanoma
# [41] = tested on: SK-MEL-2 melanoma
# [42] = tested on: CCRF-CEM leukemia
# [43] = tested on: K-562 leukemia
# [44] = tested on: LXFL 529 NSCLC
# [45] = tested on: NCI-H522 lung
# [46] = tested on: U251 CNS
# [47] = tested on: HCT-15 colon
# [48] = tested on: KM20L2 colon
# [49] = tested on: RXF 393 renal
# [50] = tested on: OVCAR-3 ovarian
# [51] = tested on: SNB-19 CNS
# [52] = tested on: CAKI-1 renal
# [53] = tested on: SF-295 CNS
# [54] = tested on: HL-60(TB) leukemia
# [55] = tested on: OVCAR-8 ovarian
# [56] = tested on: DLD-1 colon
# [57] = tested on: SW-620 colon
# [58] = tested on: RPMI-8226 leukemia
# [59] = tested on: LOX IMVI melanoma
structure (smiles),measurement,setting,value
CN(C)CC(/C(Cc1ccccc1)=N\NC(=O)C[n+]1ccccc1)c1ccccc1 (stereo unspecified),TGI,[1],> 100 µM
same,TGI,[2],> 100 µM
same,TGI,[3],> 100 µM
same,TGI,[4],> 100 µM
same,TGI,[5],> 100 µM
same,TGI,[6],> 100 µM
same,TGI,[7],> 100 µM
same,TGI,[8],> 100 µM
same,TGI,[9],> 100 µM
same,TGI,[10],> 100 µM
same,TGI,[11],> 100 µM
same,TGI,[12],> 100 µM
same,TGI,[13],> 100 µM
same,TGI,[14],> 100 µM
same,TGI,[15],> 100 µM
same,TGI,[16],> 100 µM
same,TGI,[17],> 100 µM
same,TGI,[18],> 100 µM
same,TGI,[19],> 100 µM
same,TGI,[20],> 100 µM
same,TGI,[21],> 100 µM
same,TGI,[22],> 100 µM
same,TGI,[23],> 100 µM
same,TGI,[24],> 100 µM
same,TGI,[25],> 100 µM
same,TGI,[26],> 100 µM
same,TGI,[27],> 100 µM
same,TGI,[28],> 100 µM
same,TGI,[29],> 100 µM
same,TGI,[30],> 100 µM
same,TGI,[31],> 100 µM
same,TGI,[32],> 100 µM
same,TGI,[33],> 100 µM
same,TGI,[34],> 100 µM
same,TGI,[35],> 100 µM
same,TGI,[36],> 100 µM
same,TGI,[37],> 100 µM
same,TGI,[38],> 100 µM
same,TGI,[39],> 100 µM
same,TGI,[40],> 100 µM
same,TGI,[41],> 100 µM
same,TGI,[42],> 100 µM
same,TGI,[43],> 100 µM
same,TGI,[44],> 100 µM
same,TGI,[45],> 100 µM
same,TGI,[46],> 100 µM
same,TGI,[47],> 100 µM
same,TGI,[48],> 100 µM
same,TGI,[49],> 100 µM
same,TGI,[50],> 100 µM
same,TGI,[51],> 100 µM
same,TGI,[52],> 100 µM
same,TGI,[53],> 100 µM
same,TGI,[54],> 100 µM
same,TGI,[55],> 100 µM
CN(C)c1ccc2c(c1)C(=O)N(OS(=O)(=O)c1ccc([N+](=O)[O-])cc1)C2=O,TGI,[1],47.6 µM
same,TGI,[2],63.9 µM
same,TGI,[3],47.9 µM
same,TGI,[4],> 100 µM
same,TGI,[5],> 100 µM
same,TGI,[6],64 µM
same,TGI,[7],63.8 µM
same,TGI,[8],> 100 µM
same,TGI,[9],> 100 µM
same,TGI,[10],73.8 µM
same,TGI,[11],57.6 µM
same,TGI,[12],> 100 µM
same,TGI,[13],52.7 µM
same,TGI,[14],43 µM
same,TGI,[56],86.8 µM
same,TGI,[15],59.9 µM
same,TGI,[16],31.5 µM
same,TGI,[17],54.6 µM
same,TGI,[18],38.8 µM
same,TGI,[19],> 100 µM
same,TGI,[20],56.4 µM
same,TGI,[21],60.9 µM
same,TGI,[22],> 100 µM
same,TGI,[23],75.5 µM
same,TGI,[24],31.8 µM
same,TGI,[25],> 100 µM
same,TGI,[26],> 10 µM
same,TGI,[27],> 100 µM
same,TGI,[29],> 10 µM
same,TGI,[30],43.9 µM
same,TGI,[31],> 10 µM
same,TGI,[32],> 100 µM
same,TGI,[33],60.3 µM
same,TGI,[34],> 100 µM
same,TGI,[57],46.8 µM
same,TGI,[35],47.1 µM
same,TGI,[36],33.8 µM
same,TGI,[37],35.1 µM
same,TGI,[38],> 100 µM
same,TGI,[39],80.8 µM
same,TGI,[40],58.8 µM
same,TGI,[41],87 µM
same,TGI,[42],63.1 µM
same,TGI,[43],> 100 µM
same,TGI,[44],37 µM
same,TGI,[45],30.5 µM
same,TGI,[46],35.1 µM
same,TGI,[47],> 100 µM
same,TGI,[49],28.1 µM
same,TGI,[50],> 10 µM
same,TGI,[51],> 100 µM
same,TGI,[52],54.2 µM
same,TGI,[53],62.7 µM
same,TGI,[54],76 µM
same,TGI,[55],61.2 µM
FC(F)(F)C1(Cl)C(c2ccccc2)=C1c1ccccc1,TGI,[1],29.3 µM
same,TGI,[2],28.1 µM
same,TGI,[3],31.1 µM
same,TGI,[4],29.9 µM
same,TGI,[5],32.4 µM
same,TGI,[6],29.3 µM
same,TGI,[7],> 100 µM
same,TGI,[8],24 µM
same,TGI,[9],35.6 µM
same,TGI,[10],33.1 µM
same,TGI,[11],31.3 µM
same,TGI,[13],27.7 µM
same,TGI,[14],29.5 µM
same,TGI,[56],28.3 µM
same,TGI,[15],30.2 µM
same,TGI,[16],26.6 µM
same,TGI,[17],30.3 µM
same,TGI,[18],25.6 µM
same,TGI,[19],30.4 µM
same,TGI,[58],> 100 µM
same,TGI,[20],29.3 µM
same,TGI,[21],31.9 µM
same,TGI,[22],29.2 µM
same,TGI,[23],29 µM
same,TGI,[24],27 µM
same,TGI,[25],28.5 µM
same,TGI,[26],25.6 µM
same,TGI,[27],32.7 µM
same,TGI,[28],> 100 µM
same,TGI,[29],27.4 µM
same,TGI,[30],27.6 µM
same,TGI,[59],23.8 µM
same,TGI,[31],28.4 µM
same,TGI,[32],35.4 µM
same,TGI,[33],31.8 µM
same,TGI,[57],27 µM
same,TGI,[35],29.2 µM
same,TGI,[36],29.6 µM
same,TGI,[37],26.5 µM
same,TGI,[38],28.9 µM
same,TGI,[39],30.8 µM
same,TGI,[40],27.2 µM
same,TGI,[41],28.5 µM
same,TGI,[42],12.1 µM
same,TGI,[43],26.2 µM
same,TGI,[44],26.3 µM
same,TGI,[46],28.2 µM
same,TGI,[47],27.8 µM
same,TGI,[48],30.1 µM
same,TGI,[49],26.6 µM
same,TGI,[50],31.2 µM
same,TGI,[51],31.9 µM
same,TGI,[52],25.3 µM
same,TGI,[53],28.1 µM
same,TGI,[54],24.4 µM
same,TGI,[55],29.1 µM
